From patent publication US20020062499A1, “Methods for translational repression of gene expression in plants” (priority 2000, published 2002)

Columns and labels:
GUS expression = assay: MS2 translation repression system in transgenic Arabidopsis (F1 segregants of crosses); assay type: in vivo; conditions: Arabidopsis plants containing the MS2 coat protein
Description: Arabidopsis plants are transformed by the Agrobacterium infiltration method as described (Bechtold et al., Methods Mol. Biol. 82:259-66 (1992)). DNA gel blots (Southern blot analysis), RNA gel blots (northern blot analysis) and protein immunoblots (western blot analysis) are carried out using standard protocols (Sambrook et al., Molecular Cloning: A laboratory manual, 2nd ed. Cold Spring Harbor Laboratory Press, Cold Spring Harbor, N.Y., (1989)).
V1 plants positive for GUS and MS2 coat protein are identified using a GUS assay (Jefferson et al., Plant Mol. Bio. Rep. 5:387-405 (1987)) and western blot analysis, respectively. Positive plants with a low copy number are identified by Southern analysis then cross pollinated. F1 plants from the cross are then subjected to PCR analysis to identify segregants that contained both transgenes as well as siblings that contained only the uidA gene. GUS expression levels are determined by MUG assays (Jefferson et al., Plant Mol. Bio. Rep. 5:387-405, (1987)) in both groups of plants for three separate crosses (25×1, 25×12, and 14×23).

[1] = test system: aroA:CP4 EPSPS reporter gene expression; assay: MS2 CP translational repression of CP4 EPSPS reporter, corn protoplast transient assay (ELISA); assay type: cell-based; conditions: corn protoplasts
Description: Corn protoplasts are prepared from etiolated leaves of antiseptically grown seedlings. Six to eight grams of leaf tissue is harvested and put in the enzyme mix (1% cellulase, 0.1% macerozyme, 0.6 M mannitol, 10 mM MES (pH =5.7), 1 mM CaCl2, 1 mM MgCl2, and 0. 1% BSA) in 100×25 mm petri plates. The leaf digestion is done for 135 minutes, swirling on a shaker at 50 rpm at 26° C. under light (10-25 mico-einsteins) in a growth chamber (Percival Scientific Inc., Boone, Iowa). Protoplasts are screened through a 190 μm sterile tissue mesh into a petri plate. The protoplasts are spun down in a table top centrifuge at 800 rpm (˜200 g) for 8 minutes. The supernatant is removed carefully by pipetting. The protoplasts are resuspended in 10 mL per tube of the 0.6 M mannitol rinse. They are spun down a second time using the same conditions and re-suspended in 10 mL of the electroporation buffer (0.6 M mannitol, 4 mM MES, 1.0 mM β-mercaptoethanol, 25 mM KCL, pH =5.7) and put on ice. The number of protoplasts is determined by making counts on a hemacytometer and a final density of 4.5×10^6 per mL is obtained with the proper volume of electroporation buffer. For electroporation, 0.75 mL of protoplasts is added to each cuvette followed by the addition of plasmid DNA in a volume of 50 μL or less. Samples are electroporated at 125 […] and 260 volts using a Bio-Rad Gene Pulser Electroporater (Bio-Rad CA) and incubated in Murishige-Skoog medium (MS) +0.6 M mannitol in the light at 26° C. for 18-22 hours before analysis. Protoplasts are harvested by spinning down at 800-1000 rpm in a table top centrifuge and lysed by resuspending in 500 μL extraction buffer (IX phosphate buffered saline [PBS] (Roche Boehringer Mannheim #1666789, Nutley, N.J.) 0.2% BSA, 0.5% Tween 20, pH 7.4) and vortexed for five seconds. Samples are spun at 3,000 rpm for 5 min in a table top centrifuge and the supernatant is saved to a fresh tube and put on ice ready for analysis.
The total amount of DNA in each sample is equalized by using as a carrier an appropriate amount of an empty vector plasmid DNA pMON999 (P-CaMV.35S/T-AGRTU.nos). With the aroA:CP4 EPSPS gene as the reporter, the GUS activity encoded by a separate plasmid is used as an internal control to normalize the expression. Similarly, the aroA:CP4 EPSPS gene expression is used for normalization when the Ec.uidA (GUS) gene is used as the reporter.
The aroA:CP4 EPSPS expression is quantitated by ELISA. A crude protoplast extract containing lmg total protein is added to goat anti-CP4 EPSPS IgG coated wells of a 96-well microtiter plate for immunoreaction. Antibodies specific to CP4 EPSPS are produced in goats by immunization of three goats with recombinant SDS-PAGE purified CP4 EPSPS from recombinant E. coli. […]

[2] = test system: CP4 EPSPS reporter gene expression; assay: Yeast RPL32 translational repression of CP4 EPSPS reporter in corn protoplasts; assay type: cell-based; conditions: CP4 EPSPS reporter with RPL32 operator
Description: (§1) Corn protoplasts are prepared from etiolated leaves of antiseptically grown seedlings. Six to eight grams of leaf tissue is harvested and put in the enzyme mix (1% cellulase, 0.1% macerozyme, 0.6 M mannitol, 10 mM MES (pH =5.7), 1 mM CaCl2, 1 mM MgCl2, and 0. 1% BSA) in 100×25 mm petri plates. The leaf digestion is done for 135 minutes, swirling on a shaker at 50 rpm at 26° C. under light (10-25 mico-einsteins) in a growth chamber (Percival Scientific Inc., Boone, Iowa). Protoplasts are screened through a 190 μm sterile tissue mesh into a petri plate. The protoplasts are spun down in a table top centrifuge at 800 rpm (˜200 g) for 8 minutes. The supernatant is removed carefully by pipetting. The protoplasts are resuspended in 10 mL per tube of the 0.6 M mannitol rinse. […] The number of protoplasts is determined by making counts on a hemacytometer and a final density of 4.5×10^6 per mL is obtained with the proper volume of electroporation buffer. […] Samples are spun at 3,000 rpm for 5 min in a table top centrifuge and the supernatant is saved to a fresh tube and put on ice ready for analysis.
For CP4 EPSPS ELISA assay, a 96-well Nunc-Immuno MaxiSorb plate is coated with 100 μL of purified monoclonal anti-CP4 EPSPS IgG antibody (1 ng/μL) in coating buffer (15 mM Na2CO3, 35 mM NaHCO3, pH 9.6). […] The plate is read on a Spectra Max 340 (Molecular Devices, Sunnyvail, Calif. 94089) at 450 nm. […]

[3] = test system: Ec.uidA reporter gene with the MS2 operator in the 5′UTR; assay: MS2 CP translational repression of Ec.uidA (GUS) reporter, corn protoplast transient assay; assay type: cell-based; conditions: pMON42178/pMON42176 and pMON42180/pMON42177; corn protoplasts
Description: as §1, with “analysis. […]” for “analysis.”
A fluorometry assay for GUS activity is performed as described (Jefferson, Plant Mol. Bio. Rep. 5:387-405 (1987)). GUS activity is measured with the fluorometric substrate 4-methylumbelliferryl-β-glucuronide (4-MUG) on a Fmax fluorimeter (Molecular Devices Corp., Sunnyvale, Calif.). […]

[4] = 4:1 DNA molar ratio of the coat protein gene to the reporter
[5] = MS2 coat protein gene co-expressed

For “MS2 coat protein: coat protein of the MS2 RNA bacteriophage, RNA-binding translational repressor”, the “GUS activity, % of the control” value (GUS expression) was 6.9%, the “fold repression of GUS activity” value (GUS expression) was 14 fold and the “expression of the aroA:CP4 EPSPS reporter gene, % of the control” value [1, 4] was 0.4%. For the same molecule, the “fold repression of aroA:CP4 EPSPS reporter” value [1, 4] was 270 fold, the “expression of the aroA:CP4 EPSPS reporter gene, % of the control” value [1, 5] was 14% and the “fold repression of aroA:CP4 EPSPS reporter” value [1, 5] was “about 7 fold”.

With “RPL32: yeast (Saccharomyces cerevisiae) ribosomal protein RPL32, an RNA-binding protein” the “fold reduction of translation” value [2] was “up to 2.3 fold” and the “translation, % of the control” value [2] was no less than 43%.

B1: MS2 CP:en: plant expression enhanced version of the MS2 CP gene (SEQ ID NO:3) (nucleic acid)
DNA: ATGGCCTCCAACTTCACCCAGTTCGTGCTCGTGGACAACGGCGGCACCGGCGACGTGACCGTCGCCCCAAGCAACTTCGCCAACGGGGTCGCCGAGTGGATCAGCTCCAACTCGCGCTCCCAGGCCTACAAGGTGACCTGCAGCGTGCGCCAGTCCTCCGCGCAGAACCGCAAGTACACCATCAAGGTCGAGGTGCCGAAGGTGGCCACCCAGACCGTCGGCGGCGTGGAGCTGCCAGTGGCCGCCTGGCGCTCGTACCTCAACATGGAGCTGACCATCCCAATCTTCGCCACGAACTCCGACTGCGAGCTGATCGTGAAGGCCATGCAAGGCCTCCTGAAGGACGGCAACCCGATCCCCTCCGCCATCGCCGCCAACTCCGGCATCTACTAA
modifications: synthetic plant MS2 CP gene
In the case of B1, the “increase in efficiency of translational repression compared to the respective native gene construct, expressed as decrease in GUS activity” value [3] is reported as 74-80%.
